The target in test [1] is T1, Glycylpeptide N-tetradecanoyltransferase (Candida albicans (strain SC5314 / ATCC MYA-2876) (Yeast), UniProt P30418).
T1 sequence (P30418 whole entry): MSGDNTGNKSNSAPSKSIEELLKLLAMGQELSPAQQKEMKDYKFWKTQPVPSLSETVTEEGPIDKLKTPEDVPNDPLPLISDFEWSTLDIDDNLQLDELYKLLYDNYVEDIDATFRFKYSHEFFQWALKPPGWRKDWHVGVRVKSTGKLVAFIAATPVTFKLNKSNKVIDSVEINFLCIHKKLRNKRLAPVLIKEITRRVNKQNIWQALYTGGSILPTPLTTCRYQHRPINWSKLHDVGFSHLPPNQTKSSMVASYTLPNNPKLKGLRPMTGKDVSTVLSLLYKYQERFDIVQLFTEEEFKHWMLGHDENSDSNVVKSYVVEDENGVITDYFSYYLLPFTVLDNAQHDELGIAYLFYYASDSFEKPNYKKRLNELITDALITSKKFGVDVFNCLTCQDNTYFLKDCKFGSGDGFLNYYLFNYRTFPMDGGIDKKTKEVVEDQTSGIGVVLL
Kind of test: Inhibitory activity against N-myristoyltransferase (NMT) of candida albicans.

Test [2] has as its target T2, Peptide N-myristoyltransferase (Homo sapiens, UniProt P30419+O60551).
T2 sequence (P30419 whole entry): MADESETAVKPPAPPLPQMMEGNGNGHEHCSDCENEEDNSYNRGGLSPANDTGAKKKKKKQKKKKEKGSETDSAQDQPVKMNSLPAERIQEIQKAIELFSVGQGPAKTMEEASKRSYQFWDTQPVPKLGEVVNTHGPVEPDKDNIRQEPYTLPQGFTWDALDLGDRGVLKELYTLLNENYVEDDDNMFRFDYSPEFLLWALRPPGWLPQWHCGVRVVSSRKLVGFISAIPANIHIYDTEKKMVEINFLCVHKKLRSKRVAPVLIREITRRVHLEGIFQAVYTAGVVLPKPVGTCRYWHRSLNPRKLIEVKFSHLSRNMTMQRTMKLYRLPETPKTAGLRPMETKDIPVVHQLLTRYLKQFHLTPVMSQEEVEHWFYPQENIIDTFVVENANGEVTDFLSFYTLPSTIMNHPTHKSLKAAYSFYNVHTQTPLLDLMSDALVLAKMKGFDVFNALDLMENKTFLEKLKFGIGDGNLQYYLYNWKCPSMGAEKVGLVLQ
T2 sequence (O60551 whole entry): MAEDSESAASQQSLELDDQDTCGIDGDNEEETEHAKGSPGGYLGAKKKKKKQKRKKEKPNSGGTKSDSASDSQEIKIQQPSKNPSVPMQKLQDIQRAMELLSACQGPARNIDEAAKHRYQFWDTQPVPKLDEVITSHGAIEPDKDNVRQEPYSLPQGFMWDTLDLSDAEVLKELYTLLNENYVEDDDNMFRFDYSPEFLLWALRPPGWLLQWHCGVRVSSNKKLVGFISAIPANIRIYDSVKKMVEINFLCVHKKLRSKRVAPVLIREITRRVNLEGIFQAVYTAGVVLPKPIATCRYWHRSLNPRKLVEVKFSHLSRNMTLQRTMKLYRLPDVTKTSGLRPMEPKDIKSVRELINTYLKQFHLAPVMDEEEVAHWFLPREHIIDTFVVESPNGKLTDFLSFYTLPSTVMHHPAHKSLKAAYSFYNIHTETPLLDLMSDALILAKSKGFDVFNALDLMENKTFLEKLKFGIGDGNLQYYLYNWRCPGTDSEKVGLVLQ
Kind of test: The binding affinity was evaluated against the acyl transferase's peptide, N-myristoyltransferase binding site. Type of test: protein assay.

Test [3] can be described thus: Ratio of the IC50 against human NMT to the IC50 against Candida albicans NMT.
In test [4] the target is T2, Peptide N-myristoyltransferase. Description: Inhibition of human N-myristoyltransferase (NMT). Type of test: protein assay.
For test [5], the target named is Glycylpeptide N-tetradecanoyltransferase (Candida albicans) (UniProt P30418). Description: The binding affinity was evaluated towards N-myristoyltransferase (NMT) in the presence of the peptide substrate GNAASARR-NH2.

Non-standard residues stand in square brackets, D forms with d. Residues, ends and D or L forms follow the SMILES beside them. *: point of attachment. Cha = N[C@@H](CC1CCCCC1)C(=O)O; Chg = N[C@H](C(=O)O)C1CCCCC1; NHPhenethyl = c1ccc(CCN*)cc1; 12Ado = NCCCCCCCCCCCC(=O)O; Aun = NCCCCCCCCCCC(=O)O; Ahp = NCCCCCCC(=O)O; βAla = NCCC(=O)O; Sar = CNCC(=O)O

The term IC50 denotes the concentration needed to halve the response being measured. A low value points to inhibition by little substance. In test [1], `CC(C)(C)CCNC(=O)[C@H](CCCCN)NC(=O)[C@H](CO)NC(=O)CCCCCCCCCCN` registered an IC50 of 1.2 µM.

H-ALYASKLS-NH2 yielded a Ki app in test [2] of 15.3 µM.

For `CC(C)CCNC(=O)[C@@H](CCCCN)NC(=O)[C@@H](CO)NC(=O)CCCCCCCCCCN`, it took 365 µM to reach half-maximal inhibition in test [1] (IC50).

As for `NCCCCCc1cccc(CC(=O)N[C@@H](CO)C(=O)N[C@@H](CCCCN)C(=O)NCCC2CCCCC2)c1`, the Ratio in test [3] stood at 3.5. The IC50 in test [4] is 1.8 µM; in test [1], 0.52 µM.

For `NCCCCCCCCc1ccc(CC(=O)N[C@@H](CO)C(=O)N[C@@H](CCCCN)C(=O)NCCC2CCCCC2)cc1`, the Ratio in test [3] was determined as 70. Moreover, the IC50 was 53 µM in test [4] and 0.75 µM in test [1].

As for `CC(C)CCNC(=O)[C@H](CCCCN)NC(=O)[C@H](CO)NC(=O)CCCCCCCCCCN`, the Ratio in test [3] was 0.5. In test [1], this molecule had an IC50 of 0.78 µM.

For the molecule `NCCCC[C@H](NC(=O)[C@H](CO)NC(=O)CCCCCCc1ccc(CN)cc1)C(=O)NCCC1CCCCC1`, in test [3], the Ratio is 4.4. Further, the IC50 in test [4] amounted to 1.5 µM; in test [1], 0.34 µM.

`CC(C)C[C@H](NC(=O)[C@H](CCCCN)NC(=O)[C@H](CO)NC(=O)CCCCCCCCCCN)C(N)=O` (stereo in doubt) registered an IC50 in test [1] greater than 1000 µM.

In turn, `NCCCC[C@H](NC(=O)[C@H](CO)NC(=O)Cc1ccc(C#Cc2ccc(CN)cc2)cc1)C(=O)NCCC1CCCCC1` gave a half-maximal inhibitory concentration (IC50) in test [1] greater than 10 µM.

Molecule `COC(=O)[C@H](CC(C)C)NC(=O)[C@H](CCCCN)NC(=O)[C@H](CO)NC(=O)CCCCCCCCCCN` (H-[Aun]SKL-OMe) came in with a half-maximal inhibitory concentration (IC50) in test [1] of 0.6 µM.

`CNCCCCCCCCCCC(=O)N[C@@H](CO)C(=O)N[C@@H](CCCCN)C(=O)N[C@@H](CC(C)C)C(=O)OC` displayed an IC50 in test [1] of 0.35 µM.

The molecule `COC(=O)[C@H](CC(C)C)NC(=O)[C@H](CCCCN)NC(=O)[C@H](CO)NC(=O)CCCCCCN` (H-[Ahp]SKL-OMe) showed a half-inhibitory concentration (IC50) in test [1] greater than 100 µM.

As to `NCCCC[C@H](NC(=O)[C@H](CO)NC(=O)Cc1ccc(CCc2ccc(CN)cc2)cc1)C(=O)NCCC1CCCCC1`, in test [3], the Ratio was 83. The IC50 worked out at 62 µM in test [4] and 0.75 µM in test [1].

Molecule `CC(C)C[C@H](NC(=O)CCN)C(=O)N[C@@H](Cc1ccc(O)cc1)C(=O)N[C@@H](C)C(=O)N[C@@H](CO)C(=O)N[C@@H](CCCCN)C(=O)N[C@@H](CC(C)C)C(=O)N[C@@H](CO)C(N)=O` (H-[βAla]LYASKLS-NH2) showed an IC50 in test [1] of 110 µM.

As for `NCCCC[C@H](NC(=O)[C@H](CO)NC(=O)CCCCC#Cc1ccc(CN)cc1)C(=O)NCCC1CCCCC1`, the Ratio in test [3] amounted to 4.5. For the same molecule, the half-maximal inhibitory concentration (IC50) in test [4] is 0.76 µM; in test [1], 0.17 µM.

In test [1], `CC(C)[C@H](NC(=O)[C@H](CCCCN)NC(=O)[C@H](CO)NC(=O)CCCCCCCCCCN)C(N)=O` (H-[Aun]SKV-NH2) displayed a half-maximal inhibitory concentration (IC50) of 19 µM.

`NCCCCCCCCCCC(=O)N[C@@H](CO)C(=O)N[C@@H](CCCCN)C(=O)NCCCC1CCCCCCC1`: in test [3], the Ratio was found to be 3.8. The 50% inhibitory concentration (IC50) in test [4] was determined as 1.14 µM; in test [1], 0.3 µM.

`NCCCCCCCCCCC(=O)N[C@@H](CO)C(=O)N[C@@H](CCCCN)C(=O)NCC(N)=O` (H-[Aun]SKG-NH2): the concentration for half-maximal inhibition (IC50) in test [1] amounted to 16 µM.

Consider `NCCCCCc1ccc(CC(=O)N[C@@H](CO)C(=O)N[C@@H](CCCCN)C(=O)NCCC2CCCCC2)cc1`, for which, in test [3], the Ratio was found to be 5.2. Besides, the IC50 in test [4] came to 0.99 µM; in test [1], 0.19 µM.

In the case of `COC(=O)[C@H](CC(C)C)NC(=O)[C@H](CCCCN)NC(=O)[C@H](CO)NC(=O)CCCCCCCCCCCN` (H-[12Ado]SKL-OMe), the IC50 in test [1] amounted to 0.27 µM.

Take `NCCCCCCCCCCC(=O)N[C@@H](CO)C(=O)N[C@@H](CCCCN)C(=O)N[C@H](C(N)=O)C1CCCCC1` (H-[Aun]SK[Chg]-NH2): in test [1], the half-inhibitory concentration (IC50) came to 0.76 µM. Compared with the last molecule, the IC50 is about 2.8-fold higher.

`NCCCCCCCCCCC(=O)N[C@@H](CO)C(=O)N[C@@H](CCCCN)C(=O)NCCCC1CCCCC1`: 1.3 µM corresponded to half-maximal inhibition in test [1] (IC50).

`NCCCCCCCCCCC(=O)N[C@@H](CO)C(=O)N[C@@H](CCCCN)C(=O)N[C@@H](CC1CCCCC1)C(N)=O` (H-[Aun]SK[Cha]-NH2): in test [1], half-maximal inhibition (IC50) was put at 0.36 µM.

Consider `NCCCCCCCCCCC(=O)N[C@@H](CO)C(=O)N[C@@H](CCCCN)C(=O)N[C@@H](Cc1ccccc1)C(N)=O` (H-[Aun]SKF-NH2), for which, in test [1], 8.2 µM corresponded to half-maximal inhibition (IC50). Against the preceding molecule, the IC50 is about 23-fold higher.

As a reminder, the Ki is a dissociation constant, usually derived from enzyme kinetics or from competition with a known ligand. On to `NCCCCCCc1ccc(CC(=O)N[C@@H](CO)C(=O)N[C@@H](CCCCN)C(=O)NCCC2CCCCC2)cc1`, for which the Ratio in test [3] worked out at 7.3. In addition, the figures for the IC50 in test [4] and in test [1] were 0.8 µM and 0.11 µM, respectively. Besides, the inhibition constant (Ki) in test [5] came to 0.06 µM.

Take `CC(C(=O)N[C@@H](CO)C(=O)N[C@@H](CCCCN)C(=O)NCCC1CCCCC1)c1ccc(CCCCCCN)cc1` (stereo not given in full): in test [3], the Ratio is 18. The figures for the concentration for half-maximal inhibition (IC50) in test [4] and in test [1] were 0.79 µM and 0.043 µM, respectively.

For the molecule `COC(=O)[C@H](CC(C)C)NC(=O)[C@H](CCCCN)NC(=O)[C@H](CO)NC(=O)CCCCCCCCN`, inhibition in test [1] was half-maximal at 5.2 µM (IC50).

Turning to `CC(C)CNC(=O)[C@H](CCCCN)NC(=O)[C@H](CO)NC(=O)CCCCCCCCCCN`, in test [1], the concentration for half-maximal inhibition (IC50) was greater than 10 µM.

As for `CC(C)C[C@H](NC(=O)[C@H](CCCCN)NC(=O)[C@H](CO)NC(=O)CCCCCCCCCCN)C(N)=O` (stereo in doubt; 3a), the half-maximal inhibitory concentration (IC50) in test [1] stood at 1.2 µM.

For the molecule `COC(=O)[C@H](CC(C)C)NC(=O)[C@H](CCCCN)NC(=O)[C@H](CO)NC(=O)CCCCCCCCCCN(C)C`, half-maximal inhibition in test [1] (IC50) was put at 0.69 µM.

Regarding `C[C@H](NC(=O)[C@H](CCCCN)NC(=O)[C@H](CO)NC(=O)CCCCCCCCCCN)C(N)=O` (H-[Aun]SKA-NH2), 16 µM corresponded to half-maximal inhibition in test [1] (IC50). This IC50 is about 23-fold higher than that of the molecule before.

In test [1], `COC(=O)[C@H](CC(C)C)NC(=O)[C@H](CCCCN)NC(=O)[C@H](CO)NC(=O)CCCCCCCCCN` showed an IC50 of 0.3 µM.

`NCCCCCCCCCCC(=O)N[C@@H](CO)C(=O)N[C@@H](CCCCN)C(=O)NCCc1ccccc1` (H-[Aun]-Ser-Lys-NHPhenethyl) yielded a concentration for half-maximal inhibition (IC50) in test [1] of 5 µM.

In turn, `CNCC(=O)N[C@@H](CC(C)C)C(=O)N[C@@H](Cc1ccc(O)cc1)C(=O)N(C)CC(=O)N[C@@H](CO)C(=O)N[C@@H](CCCCN)C(=O)N[C@@H](CC(C)C)C(=O)N[C@@H](CO)C(N)=O` (H-[Sar]LY[Sar]SKLS-NH2) registered an IC50 in test [1] of 80 µM. Against the preceding molecule, the IC50 is about 16-fold higher.

Molecule `CC[C@H](C)[C@H](NC(=O)[C@H](CCCCN)NC(=O)[C@H](CO)NC(=O)CCCCCCCCCCN)C(N)=O` (H-[Aun]SKI-NH2) came in with an IC50 in test [1] of 3.9 µM.
